Results from paper PMC3820767, “Turning Defense into Offense: Defensin Mimetics as Novel Antibiotics Targeting Lipid II” (PLoS Pathogens, 2013).
Values after ≈ are worked out from the molar mass of the structure shown. Read-outs that look alike come from different tables or passages of the source.

How the values were obtained:
[1] = test system: Staphylococcus aureus (MRSA) MMX757; test: Broth microdilution susceptibility testing (CLSI); assay type: cell-based
Procedure: (§1) The antibacterial activity of defensin mimetics against Staphylococcus aureus ATCC 29213 and Escherichia coli 25922 was carried out in a 96-well turbidimetric assay essentially as described previously with the following modifications: bacteria were exposed for 30 min to compounds in 10 mM phosphate buffer containing 5% DMSO prior to addition of 2× Muller-Hinton medium. Bacterial growth was monitored for 12 hours and data were analyzed as described. Determination of MICs was performed by Micromyx, LLC (Kalamazoo, Michigan) according to CLSI standards.

[2] = test system: Pseudomonas aeruginosa MMX103-ATCC 27853; test: Broth microdilution susceptibility testing (CLSI); assay type: cell-based
Procedure: as §1

[3] = test system: Enterococcus faecalis MMX101-ATCC 29212; test: Broth microdilution susceptibility testing (CLSI); assay type: cell-based
Procedure: as §1

[4] = test system: Streptococcus pneumoniae MMX1195-ATCC 49619; test: Broth microdilution susceptibility testing (CLSI); assay type: cell-based
Procedure: as §1

[5] = test system: Staphylococcus aureus MMX100-ATCC 29213; test: Broth microdilution susceptibility testing (CLSI); assay type: cell-based
Procedure: as §1

[6] = test system: Enterococcus faecalis (VRE) MMX848; test: Broth microdilution susceptibility testing (CLSI); assay type: cell-based
Procedure: as §1

[7] = test system: Escherichia coli MMX102-ATCC 25922; test: Broth microdilution susceptibility testing (CLSI); assay type: cell-based
Procedure: as §1

[8] = Surface Plasmon Resonance binding to immobilized 3-Lipid II; conditions: SPR; for Binding on Lipid II?: Table S3, initial determination at 10 µM
Procedure: Surface Plasmon Resonance binding experiments were carried out on a BIAcore T100 system (BIAcore Inc., Piscataway, NY) at 25°C. The assay buffer was 10 mM HEPES, 150 mM NaCl, 0.05% surfactant P20, pH 7.4 (±3 mM EDTA) supplemented with 10% DMSO. […] For initial determination of binding, defensin mimetics were introduced into the flow-cells (30 µl/min) in the running buffer at 10 µM. Resonance signals were corrected for nonspecific binding by subtracting the background of the control flow-cell. After each analysis, the sensor chip surfaces were regenerated with 50 mM NaOH for 30 s at a flow rate 100 µl/min, and equilibrated with the buffer prior to next injection. For binding kinetics studies, binding isotherms were analyzed with manufacturer-supplied software for BIAcore T100.

Caco-2 = test: Cytotoxicity by MTT assay; assay type: cell-based, human
[9] = test system: Streptococcus pneumonia (PRSP) MMX884; test: Broth microdilution susceptibility testing (CLSI); assay type: cell-based, Streptococcus pneumoniae
Procedure: as §1

Jurkat = test: Cytotoxicity by MTT assay; assay type: cell-based, human
[10] = test system: Escherichia coli ATCC 25922; test: Antibacterial killing, 96-well turbidimetric (modified vCC) assay; assay type: cell-based; conditions: for active against E.coli (IC100%): Table S3, concentration at which 100% killing occurred, no bacterial regrowth, No = not active; for Bacterial Killing E. coli: concentration resulting in 100% killing after 30 min exposure, modified vCC assay
Procedure: as §1

[11] = test system: Staphylococcus aureus ATCC 29213; test: as above; assay type: cell-based; conditions: for active against S.aureus (IC100%): Table S3, concentration at which 100% killing occurred, no bacterial regrowth, No = not active; for Bacterial Killing S. aureus: concentration resulting in 100% killing after 30 min exposure, modified vCC assay
Procedure: as §1

## CC[n+]1c(/C=C2C=C(/C=C/N(C)c3ccccc3)CC(C)(C)C/2)sc2ccccc21 [Compound 4090-1978, 2-{[(1E)-5,5-dimethyl-3-[(E)-2-[methyl(phenyl)amino]ethenyl]cyclohex-2-en-1-ylidene]methyl}-3-ethyl-1,3-benzothiazol-3-ium]
[1]
  MIC Staphylococcus aureus (MRSA) 757-NA: 2 µg/mL
[2]
  MIC Pseudomonas aeruginosa 103-27853: >64 µg/mL
[3]
  MIC Enterococcus faecalis 101-29212: 16 µg/mL
[4]
  MIC Streptococcus pneumoniae 1195-49619: >8 µg/mL
[5]
  MIC Staphylococcus aureus 100-29213: 2 µg/mL
[6]
  MIC Enterococcus faecalis (VRE) 848-NA: 16 µg/mL
[7]
  MIC Escherichia coli 102-25922: 64 µg/mL
[8]
  Binding on Lipid II?: No
Caco-2
  IC50: 16.7 µM
[9]
  MIC Streptococcus pneumonia (PRSP) 884-NA: >8 µg/mL
Jurkat
  IC50: 87.3 µM
[10]
  active against E.coli (IC100%): 62,5 µM
  Bacterial Killing E. coli: 62.5 µM
[11]
  active against S.aureus (IC100%): 15,625 µM
  Bacterial Killing S. aureus: 15.6 µM

## Oc1ccccc1Oc1c(F)c(F)c(-c2c(F)c(F)c(Oc3ccccc3O)c(F)c2F)c(F)c1F [Compound 1611-0203, 2-{2,3,5,6-tetrafluoro-4-[2,3,5,6-tetrafluoro-4-(2-hydroxyphenoxy)phenyl]phenoxy}phenol]
[1]
  MIC Staphylococcus aureus (MRSA) 757-NA: 2 µg/mL (≈ 3.89 µM)
[2]
  MIC Pseudomonas aeruginosa 103-27853: >4 µg/mL
[3]
  MIC Enterococcus faecalis 101-29212: 1 µg/mL (≈ 1.94 µM)
[4]
  MIC Streptococcus pneumoniae 1195-49619: >16 µg/mL
[5]
  MIC Staphylococcus aureus 100-29213: 2 µg/mL (≈ 3.89 µM)
[6]
  MIC Enterococcus faecalis (VRE) 848-NA: 1 µg/mL (≈ 1.94 µM)
[7]
  MIC Escherichia coli 102-25922: >4 µg/mL
[8]; immobilized 3-Lipid II
  Kd: 59.6 µM
Caco-2; concentration resulting in 50% cell survival, MTT, 24 h, read-out: Cytotoxicity (C50%) Caco-2
  IC50: 4.2 µM
[9]
  MIC Streptococcus pneumonia (PRSP) 884-NA: >16 µg/mL
Jurkat; concentration resulting in 50% cell survival, MTT, 4 h, read-out: Cytotoxicity (C50%) Jurkat
  IC50: 63.4 µM
[10]
  Bacterial Killing E. coli: >500 µM
[11]
  active against S.aureus (IC100%): 3,9 µM
  Bacterial Killing S. aureus: 3.9 µM

## CC(=O)NC[C@H]1CN(c2ccc(N3CCOCC3)c(F)c2)C(=O)O1 [Linezolid, reference compound]
[1]; Staphylococcus aureus, MRSA, read-out: MIC Staphylococcus aureus (MRSA) 757-NA
  MIC: 4 µg/mL (≈ 11.9 µM)
[2]; Pseudomonas aeruginosa, ATCC27853, read-out: MIC Pseudomonas aeruginosa 103-27853
  MIC: > 64 µg/mL
[3]; Enterococcus faecalis, ATCC29212, read-out: MIC Enterococcus faecalis 101-29212
  MIC: 2 µg/mL (≈ 5.93 µM)
[4]; Streptococcus pneumoniae, ATCC49619, read-out: MIC Streptococcus pneumoniae 1195-49619
  MIC: 2 µg/mL (≈ 5.93 µM)
[5]; Staphylococcus aureus, ATCC29213, read-out: MIC Staphylococcus aureus 100-29213
  MIC: 4 µg/mL (≈ 11.9 µM)
[6]; Enterococcus faecalis, VRE, read-out: MIC Enterococcus faecalis (VRE) 848-NA
  MIC: 2 µg/mL (≈ 5.93 µM)
[7]; Escherichia coli, ATCC25922, read-out: MIC Escherichia coli 102-25922
  MIC: > 64 µg/mL
[9]; Streptococcus pneumoniae, PRSP, read-out: MIC Streptococcus pneumonia (PRSP) 884-NA
  MIC: 2 µg/mL (≈ 5.93 µM)

## CC[n+]1c(/C=C/C=C2C=C(/C=C/N(C(C)=O)c3ccccc3)CC(C)(C)C/2)sc2ccccc21.[I-] [Compound 5119716, 2-[(1E)-3-[(1E)-5,5-dimethyl-3-[(E)-2-(N-phenylacetamido)ethenyl]cyclohex-2-en-1-ylidene]prop-1-en-1-yl]-3-ethyl-1,3-benzothiazol-3-ium iodide]
[8]
  Binding on Lipid II?: No
Caco-2
  IC50: 52.7 µM
[10]
  active against E.coli (IC100%): No
[11]
  active against S.aureus (IC100%): 125 µM

## Fc1ccc(N2CCN(C3CCN(Cc4ccccc4)CC3)CC2)cc1 [Compound 5457685, 1-(1-benzyl-4-piperidinyl)-4-(4-fluorophenyl)piperazine]
[8]
  Binding on Lipid II?: No
Caco-2
  cytotoxic for Caco II (C50% survival): No
[10]
  active against E.coli (IC100%): No
[11]
  active against S.aureus (IC100%): No

## CC(C)CCCC(C)C1CCC2C3CC=C4CC(O)CCC4(C)C3CCC12C (centres unmarked) [Compound N050-0022, 2,15-dimethyl-14-(6-methylheptan-2-yl)tetracyclo[8.7.0.0^{2,7}.0^{11,15}]heptadec-7-en-5-ol]
[8]
  Binding on Lipid II?: No
Caco-2
  IC50: 123 µM
[10]
  active against E.coli (IC100%): No
[11]
  active against S.aureus (IC100%): No

## CCN(CC)CCCN1CN(CCCN(CC)CC)CN(CCCN(CC)CC)C1 [Compound 000A-0859, (3-{3,5-bis[3-(diethylamino)propyl]-1,3,5-triazinan-1-yl}propyl)diethylamine]
[8]
  Binding on Lipid II?: Yes
Caco-2
  IC50: 419 µM
[10]
  active against E.coli (IC100%): 500 µM
[11]
  active against S.aureus (IC100%): 500 µM

## Clc1ccc(N2CCN(Cc3ccc(-c4ccccc4)cc3)CC2)cc1 [Compound 5270046, 1-(4-biphenylylmethyl)-4-(4-chlorophenyl)piperazine]
[8]
  Binding on Lipid II?: No
Caco-2
  cytotoxic for Caco II (C50% survival): No
[10]
  active against E.coli (IC100%): No
[11]
  active against S.aureus (IC100%): No

## Fc1ccccc1CN1CCC(N2CCN(c3ccccc3)CC2)CC1 [Compound 5607-0206, 1-{1-[(2-fluorophenyl)methyl]piperidin-4-yl}-4-phenylpiperazine]
[8]
  Binding on Lipid II?: No
Caco-2; Table S3, No = not cytotoxic
  cytotoxic for Caco II (C50% survival): No
[10]
  active against E.coli (IC100%): No
[11]
  active against S.aureus (IC100%): No

## CCN(CC)c1ccc(CN2CCN(c3cccc(C(F)(F)F)c3)CC2)cc1 [Compound 5427129, N,N-diethyl-4-({4-[3-(trifluoromethyl)phenyl]-1-piperazinyl}methyl)aniline]
[8]
  Binding on Lipid II?: Yes
Caco-2
  IC50: 192 µM
[10]
  active against E.coli (IC100%): No
[11]
  active against S.aureus (IC100%): (No)

## Cc1ccc(CN2CCC(N3CCN(c4ccccc4F)CC3)CC2)cc1 [Compound 6711103, 1-(2-fluorophenyl)-4-[1-(4-methylbenzyl)-4-piperidinyl]piperazine]
[8]
  Binding on Lipid II?: No
Caco-2
  cytotoxic for Caco II (C50% survival): No
[10]
  active against E.coli (IC100%): No
[11]
  active against S.aureus (IC100%): No

## Fc1ccc(N2CCN(Cc3ccc(-c4ccccc4)cc3)CC2)cc1 [Compound 5267798, 1-(4-biphenylylmethyl)-4-(4-fluorophenyl)piperazine]
[8]
  Binding on Lipid II?: No
Caco-2
  cytotoxic for Caco II (C50% survival): No
[10]
  active against E.coli (IC100%): No
[11]
  active against S.aureus (IC100%): No

## Cc1cc(C2c3ccccc3-c3ccccc32)cc(C)c1O [610995/1, 4-(9H-fluoren-9-yl)-2,6-dimethylphenol]
[8]
  Binding on Lipid II?: Yes
Caco-2
  IC50: 9.2 µM
[10]
  active against E.coli (IC100%): No
[11]
  active against S.aureus (IC100%): 125 µM

## CCn1c2ccccc2c2cc(N/C=C(\C#N)c3nc(-c4ccc(C)cc4C)cs3)ccc21 [STK537076, (2E)-2-[4-(2,4-dimethylphenyl)-1,3-thiazol-2-yl]-3-[(9-ethyl-9H-carbazol-3-yl)amino]prop-2-enenitrile]
[8]
  Binding on Lipid II?: No
Caco-2
  IC50: 240 µM
[10]
  active against E.coli (IC100%): No
[11]
  active against S.aureus (IC100%): No

## CCN1/C(=C/C=C/C=C/C2=CC(=C/c3sc4ccccc4[n+]3CC)/CC(C)(C)C2)Sc2ccccc21 [STK792971, 3-ethyl-2-[(E)-{3-[(1E,3E,5Z)-5-(3-ethyl-1,3-benzothiazol-2(3H)-ylidene)penta-1,3-dien-1-yl]-5,5-dimethylcyclohex-2-en-1-ylidene}methyl]-1,3-benzothiazol-3-ium]
[8]
  Binding on Lipid II?: No
Caco-2
  cytotoxic for Caco II (C50% survival): No
[10]
  active against E.coli (IC100%): No
[11]
  active against S.aureus (IC100%): 62,5 µM

## O=C(CSc1nc(-c2ccccc2)c(-c2ccccc2)n1-c1ccccc1)N1CCCc2ccccc21 [ST4098270, 1-(1,2,3,4-tetrahydroquinolin-1-yl)-2-[(1,4,5-triphenyl-1H-imidazol-2-yl)sulfanyl]ethan-1-one]
[8]
  Binding on Lipid II?: No
Caco-2
  cytotoxic for Caco II (C50% survival): No
[10]
  active against E.coli (IC100%): No
[11]
  active against S.aureus (IC100%): No
